Assay results taken from patent publication US9233968B1, “Kinase inhibitors” (Allergan, Inc., priority 2014, dated 2016).

Key:
[1] = molecular target: PDGFRβ (Homo sapiens (Human), UniProt P09619); assay: PDGFRβ Cellular Assay (FLIPR, PDGF-induced intracellular calcium in NHDF-Ad); type: cell-based; details: PDGF-BB stimulation 30 ng/mL, read-out: Receptor PDGFRβ IC50
Description: (§1) Automated FLIPR (Fluorometric Imaging Plate Reader) technology was used to screen for inhibitors of PDGF-induced increases in intracellular calcium levels in fluorescent dye loaded endothelial cells. NHDF-Ad (Normal Human Dermal Fibroblasts, Adult; Lonza) were seeded in 384-well fibronectin coated black-walled plates overnight at 37° C./5% CO2. Cells were loaded with calcium indicator Fluo-4 for 45 minutes at 37° C. Cells were washed 2 times (Elx405, Biotek Instruments) to remove extracellular dye. For screening, cells were pre-incubated with test agents for 30 minutes, at a single concentration (10 μM) or at concentrations ranging from 0.0001 to 10.0 μM followed by PDGF-BB stimulation (30 ng/mL). […] Data were generated by determining max-min fluorescence levels for unstimulated, stimulated, and drug treated samples. IC50 values for test compounds were calculated from % inhibition of PDGF-BB stimulated responses in the absence of inhibitor.

[2] = molecular target: VEGFR2 (cytoplasmic domain KDR protein) (Homo sapiens (Human), UniProt P35968); assay: VEGFR2 Kinase Assay (biochemical KDR kinase assay); details: 2.7 μM ATP, poly-Glu-Tyr substrate; read-out: Enzyme VEGFR2 IC50
Description: Biochemical KDR kinase assays were performed in 96 well microtiter plates that were coated overnight with 75 μg/well of poly-Glu-Tyr (4:1) in 10 mM Phosphate Buffered Saline (PBS), pH 7.4. The coated plates were washed with 2 mls per well PBS+0.05% Tween-20 (PBS-T), blocked by incubation with PBS containing 1% BSA, then washed with 2 mls per well PBS-T prior to starting the reaction. Reactions were carried out in 100 μL reaction volumes containing 2.7 μM ATP in kinase buffer (50 mM Hepes buffer pH 7.4, 20 mM MgCl2, 0.1 mM MnCl2 and 0.2 mM Na3VO4). […] Reactions were initiated by the addition 20 μl per well of kinase buffer containing 200-300 ng purified cytoplasmic domain KDR protein (BPS Bioscience, San Diego, Calif.). Following a 15 minute incubation at 30° C., the reactions were washed 2 mls per well PBS-T. 100 μl of a monoclonal anti-phosphotyrosine antibody-peroxidase conjugate diluted 1:10,000 in PBS-T was added to the wells for 30 minutes. Following a 2 mls per well wash with PBS-Tween-20, 100 μl of O-Phenylenediamine Dihydrochloride in phosphate-citrate buffer, containing urea hydrogen peroxide, was added to the wells for 7-10 minutes as a colorimetric substrate for the peroxidase. The reaction was terminated by the addition of 100 μl of 2.5N H2SO4 to each well and read using a microplate ELISA reader set at 492 nm. IC50 values for compound inhibition were calculated directly from graphs of optical density (arbitrary units) versus compound concentration following subtraction of blank values.

[3] = molecular target: VEGFR2 (Homo sapiens (Human), UniProt P35968); assay: VEGFR2 Cellular Assay (FLIPR, VEGF induced intracellular calcium in HUVEC); type: cell-based; details: VEGF165 stimulation 10 ng/mL, read-out: Receptor VEGFR2 IC50
Description: as §1, with “VEGFR2 Cellular Assay Automated” for “Automated”, “of VEGF induced” for “of PDGF-induced”, “cells. HUVEC (human umbilical vein endothelial cells) (Clonetics)” for “cells. NHDF-Ad (Normal Human Dermal Fibroblasts, Adult; Lonza)”, “by VEGF165” for “by PDGF-BB”, “stimulation (10” for “stimulation (30”, “of VEGF” for “of PDGF-BB”

[4] = molecular target: PDGFRβ (cytoplasmic domain PDGFR-b protein) (Homo sapiens (Human), UniProt P09619); assay: PDGFRβ Kinase Assay; type: biochemical; details: 36 μM ATP, poly-Glu-Tyr substrate; read-out: Enzyme PDGFRβ IC50
Description: Biochemical PDGFRβ kinase assays were performed in 96 well microtiter plates that were coated overnight with 75 μg of poly-Glu-Tyr (4:1) in 10 mM Phosphate Buffered Saline (PBS), pH 7.4. The coated plates were washed with 2 mls per well PBS+0.05% Tween-20 (PBS-T), blocked by incubation with PBS containing 1% BSA, then washed with 2 mls per well PBS-T prior to starting the reaction. […] Reactions were initiated by the addition 20 μl per well of kinase buffer containing 200-300 ng purified cytoplasmic domain PDGFR-b protein (Millipore). Following a 60 minute incubation at 30° C., the reactions were washed 2 mls per well PBS-T. 100 μl of a monoclonal anti-phosphotyrosine antibody-peroxidase conjugate diluted 1:10,000 in PBS-T was added to the wells for 30 minutes. Following a 2 mls per well wash with PBS-Tween-20, 100 μl of O-Phenylenediamine Dihydrochloride in phosphate-citrate buffer, containing urea hydrogen peroxide, was added to the wells for 7-10 minutes as a colorimetric substrate for the peroxidase. […] IC50 values for compound inhibition were calculated directly from graphs of optical density (arbitrary units) versus compound concentration following subtraction of blank values.

PDGFRβ (cytoplasmic domain PDGFR-b protein), sequence (P09619 554-1106): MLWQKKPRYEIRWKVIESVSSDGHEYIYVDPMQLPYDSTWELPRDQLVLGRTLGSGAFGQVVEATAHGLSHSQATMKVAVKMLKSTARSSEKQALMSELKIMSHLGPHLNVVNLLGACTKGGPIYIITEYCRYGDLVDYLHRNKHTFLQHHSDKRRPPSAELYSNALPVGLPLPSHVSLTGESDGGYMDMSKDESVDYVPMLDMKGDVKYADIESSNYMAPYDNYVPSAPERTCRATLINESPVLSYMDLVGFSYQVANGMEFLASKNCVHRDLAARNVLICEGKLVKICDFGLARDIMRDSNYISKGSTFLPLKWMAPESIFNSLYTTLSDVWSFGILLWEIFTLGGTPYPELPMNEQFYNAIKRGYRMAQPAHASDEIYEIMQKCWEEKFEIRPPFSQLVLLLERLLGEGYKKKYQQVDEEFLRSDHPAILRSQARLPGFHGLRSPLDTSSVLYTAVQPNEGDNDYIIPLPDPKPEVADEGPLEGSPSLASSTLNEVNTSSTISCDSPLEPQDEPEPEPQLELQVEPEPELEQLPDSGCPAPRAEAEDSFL
VEGFR2, sequence (P35968 20-1356): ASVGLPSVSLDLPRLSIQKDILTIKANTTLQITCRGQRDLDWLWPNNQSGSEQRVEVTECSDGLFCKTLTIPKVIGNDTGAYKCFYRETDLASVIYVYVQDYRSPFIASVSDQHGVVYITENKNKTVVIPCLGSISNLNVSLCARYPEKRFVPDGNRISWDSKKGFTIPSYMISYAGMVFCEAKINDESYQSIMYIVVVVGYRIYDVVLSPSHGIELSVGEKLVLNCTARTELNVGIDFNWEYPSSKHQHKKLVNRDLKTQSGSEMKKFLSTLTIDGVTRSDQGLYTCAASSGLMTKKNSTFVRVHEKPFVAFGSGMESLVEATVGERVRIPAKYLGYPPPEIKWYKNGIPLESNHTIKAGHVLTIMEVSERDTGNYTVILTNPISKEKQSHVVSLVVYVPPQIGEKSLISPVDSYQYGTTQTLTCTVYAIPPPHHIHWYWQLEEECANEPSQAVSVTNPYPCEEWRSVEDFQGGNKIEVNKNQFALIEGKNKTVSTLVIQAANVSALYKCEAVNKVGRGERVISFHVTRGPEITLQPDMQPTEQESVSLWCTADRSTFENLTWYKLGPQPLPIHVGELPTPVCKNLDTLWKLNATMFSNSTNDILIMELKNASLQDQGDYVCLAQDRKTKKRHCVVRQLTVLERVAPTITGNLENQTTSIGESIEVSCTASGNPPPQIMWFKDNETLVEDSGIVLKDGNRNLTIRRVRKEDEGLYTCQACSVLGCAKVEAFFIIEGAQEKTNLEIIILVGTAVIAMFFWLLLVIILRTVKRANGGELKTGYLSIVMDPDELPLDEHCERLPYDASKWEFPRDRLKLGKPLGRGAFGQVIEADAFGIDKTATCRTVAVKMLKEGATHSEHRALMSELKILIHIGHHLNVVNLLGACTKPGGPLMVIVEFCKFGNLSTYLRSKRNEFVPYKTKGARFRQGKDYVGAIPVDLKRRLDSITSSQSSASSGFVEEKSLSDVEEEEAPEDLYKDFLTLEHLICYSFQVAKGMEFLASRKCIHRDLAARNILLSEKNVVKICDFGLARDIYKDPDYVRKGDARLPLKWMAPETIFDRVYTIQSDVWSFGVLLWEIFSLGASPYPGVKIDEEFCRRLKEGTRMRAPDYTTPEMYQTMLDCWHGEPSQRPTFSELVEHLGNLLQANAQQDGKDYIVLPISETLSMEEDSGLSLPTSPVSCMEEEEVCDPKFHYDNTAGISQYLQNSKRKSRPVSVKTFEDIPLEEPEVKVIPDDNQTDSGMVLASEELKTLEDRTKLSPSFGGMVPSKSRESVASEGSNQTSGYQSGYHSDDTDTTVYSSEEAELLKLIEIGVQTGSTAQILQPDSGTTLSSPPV
VEGFR2 (cytoplasmic domain KDR protein), sequence (P35968 786-1356): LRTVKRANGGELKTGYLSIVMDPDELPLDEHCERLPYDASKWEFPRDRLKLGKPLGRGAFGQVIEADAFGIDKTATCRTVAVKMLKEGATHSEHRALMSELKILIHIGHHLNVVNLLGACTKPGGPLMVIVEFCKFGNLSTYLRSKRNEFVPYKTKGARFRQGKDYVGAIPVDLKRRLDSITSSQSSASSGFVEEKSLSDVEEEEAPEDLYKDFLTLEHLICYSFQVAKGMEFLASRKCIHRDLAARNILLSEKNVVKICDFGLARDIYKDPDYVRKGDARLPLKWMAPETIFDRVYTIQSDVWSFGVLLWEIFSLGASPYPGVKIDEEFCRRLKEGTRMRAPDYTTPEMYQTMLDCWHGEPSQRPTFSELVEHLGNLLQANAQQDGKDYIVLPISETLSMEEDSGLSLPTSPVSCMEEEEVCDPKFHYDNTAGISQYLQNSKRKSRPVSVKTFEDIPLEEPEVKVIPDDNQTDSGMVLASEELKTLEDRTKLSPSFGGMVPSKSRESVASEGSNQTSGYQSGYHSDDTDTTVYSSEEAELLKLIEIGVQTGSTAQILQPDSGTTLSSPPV
PDGFRβ, sequence (P09619 33-1106): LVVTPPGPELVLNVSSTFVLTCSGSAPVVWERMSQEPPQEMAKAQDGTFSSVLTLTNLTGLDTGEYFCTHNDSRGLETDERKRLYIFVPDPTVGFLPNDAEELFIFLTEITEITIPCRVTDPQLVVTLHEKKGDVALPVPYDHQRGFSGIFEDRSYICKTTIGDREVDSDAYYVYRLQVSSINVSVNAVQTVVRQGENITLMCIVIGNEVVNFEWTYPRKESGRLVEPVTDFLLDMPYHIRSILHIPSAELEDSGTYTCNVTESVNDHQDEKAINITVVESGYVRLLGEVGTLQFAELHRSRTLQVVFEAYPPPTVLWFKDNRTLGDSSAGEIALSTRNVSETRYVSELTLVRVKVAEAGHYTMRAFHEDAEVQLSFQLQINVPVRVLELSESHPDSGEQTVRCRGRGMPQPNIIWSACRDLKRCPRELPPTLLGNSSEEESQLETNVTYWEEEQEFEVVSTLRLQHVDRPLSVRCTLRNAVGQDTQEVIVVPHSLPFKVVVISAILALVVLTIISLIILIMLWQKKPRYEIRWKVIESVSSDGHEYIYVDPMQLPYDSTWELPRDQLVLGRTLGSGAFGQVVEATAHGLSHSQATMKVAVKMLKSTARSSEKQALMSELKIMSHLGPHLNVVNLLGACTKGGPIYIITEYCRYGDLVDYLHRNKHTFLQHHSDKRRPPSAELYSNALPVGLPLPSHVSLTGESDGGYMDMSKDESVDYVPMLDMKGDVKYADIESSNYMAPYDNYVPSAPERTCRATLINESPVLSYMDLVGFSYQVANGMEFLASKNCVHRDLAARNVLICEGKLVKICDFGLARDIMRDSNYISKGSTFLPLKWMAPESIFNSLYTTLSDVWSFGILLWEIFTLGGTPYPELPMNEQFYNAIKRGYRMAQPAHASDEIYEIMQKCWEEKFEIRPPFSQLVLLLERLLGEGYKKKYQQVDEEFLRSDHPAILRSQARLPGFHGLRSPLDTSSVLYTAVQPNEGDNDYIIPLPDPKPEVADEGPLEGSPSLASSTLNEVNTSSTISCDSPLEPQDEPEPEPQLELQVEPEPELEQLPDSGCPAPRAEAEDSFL

IC50 [1]	IC50 [2]	IC50 [3]	IC50 [4]	SMILES
2.68 µM	0.464 µM	1.46 µM	0.938 µM	O=C(Nc1cccc(C#Cc2ccc3nccn3n2)c1)c1ccc(F)c(Cl)c1 [Example 24, 3-chloro-4-fluoro-N-[3-(imidazo[1,2-b]pyridazin-6-ylethynyl)phenyl]benzamide]
> 10 µM	> 10 µM	4.4 µM	> 10 µM	Cc1ccc(F)c(C(=O)Nc2ccc(C#Cc3ccc4nc(N)cn4n3)cc2)c1 [Example 20, N-{4-[(2-aminoimidazo[1,2-b]pyridazin-6-yl)ethynyl]phenyl}-2-fluoro-5-methylbenzamide]
0.516 µM	0.073 µM	0.423 µM	0.055 µM	Nc1cn2nc(C#Cc3ccc(NC(=O)Nc4cc(C(F)(F)F)ccc4F)cc3)ccc2n1 [Example 4, 1-{4-[(2-aminoimidazo[1,2-b]pyridazin-6-yl)ethynyl]phenyl}-3-[2-fluoro-5-(trifluoromethyl)phenyl]urea]
0.371 µM	0.088 µM	1.12 µM	0.767 µM	Cc1ccc(F)c(C(=O)Nc2cccc(C#Cc3ccc4nc(N)cn4n3)c2)c1 [Example 21, N-{3-[(2-aminoimidazo[1,2-b]pyridazin-6-yl)ethynyl]phenyl}-2-fluoro-5-methylbenzamide]
10.5 µM	1.69 µM	> 10 µM	6.57 µM	Nc1ccc(C#Cc2ccc3nc(NC(=O)Nc4ccc(F)c(Cl)c4)cn3n2)cc1 [Example 14, 1-{6-[(4-aminophenyl)ethynyl]imidazo[1,2-b]pyridazin-2-yl}-3-(3-chloro-4-fluorophenyl)urea]
> 10 µM	1.62 µM	3.04 µM	6.08 µM	Cc1ccc(F)c(C(=O)Nc2cccc(C#Cc3ccc4nccn4n3)c2)c1 [Example 26, 2-fluoro-N-[3-(imidazo[1,2-b]pyridazin-6-ylethynyl)phenyl]-5-methylbenzamide]
3.63 µM	2.93 µM	> 10 µM	3.61 µM	O=C(Nc1ccc(C#Cc2ccc3nc(NC(=O)Nc4ccc(F)c(Cl)c4)cn3n2)cc1)Nc1ccc(F)c(Cl)c1 [Example 15, 1-(3-chloro-4-fluorophenyl)-3-(4-{[2-({[(3-chloro-4-fluorophenyl)amino]carbonyl}amino)imidazo[1,2-b]pyridazin-6-yl]ethynyl}phenyl)urea]
